The nature of assay [1]: HepG2 cell cytotoxicity, dose response, cytotoxicity control for Shn3 inhibitor project, CellTiter-Glo, cherry-picked (AID 624134). In kind it is functional, cell-based. On the technique in general: In ATP-based viability assays light output follows the ATP content of the culture.
A short description of assay [2]: Counterscreen for AddAB inhibitors: absorbance-based bacterial cell-based high throughput dose response assay for inhibitors of bacterial viability. [Related pubchem assays (depositor defined):AID435030, AID449728, AID449731, AID488942, AID488955, AID488956]. In kind it is functional. A general note: Counterscreens check selectivity or assay interference.
The nature of assay [3]: NIH-3T3 fibroblast cytotoxicity, dose response, cytotoxicity control, cell-based, fluorescence, Alamar Blue, secondary assay (AID 2327).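 Note: NIH-3T3 mouse fibroblasts cultured with fluconazole at 8 µg/mL.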 It counts as functional. For orientation: Alamar Blue is a resazurin reagent that responds to reducing activity.
A short description of assay [4]: control 3'UTR Renilla luciferase suppression, dose response, counter-screen for Shn3 inhibitor project, cell-based, Clone20-Shn3RL, cherry-picked (AID 624133). In kind it is functional.
A short description of assay [5]: Shn3 3'UTR reporter inhibitors, dose response, cell-based, Clone20 osteoblasts, firefly luciferase, cherry-picked (AID 624132).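 Note: firefly luciferase luminescence from reporter carrying the Shn3 3'UTR in osteoblasts.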 In kind it is functional.
Assay [6] deals with Paired box protein Pax-8 (Homo sapiens, UniProt Q06710). Briefly: inhibitors of PAX8-driven TPO luciferase reporter, dose response, RMG-I cells, cherry-pick (AID 687027).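 Note: luciferase reporter driven by Pax8 target thyroperoxidase promoter measured by SteadyGlo luminescence.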 In kind it is functional, cell-based.
Paired box protein Pax-8, sequence (Q06710 whole entry): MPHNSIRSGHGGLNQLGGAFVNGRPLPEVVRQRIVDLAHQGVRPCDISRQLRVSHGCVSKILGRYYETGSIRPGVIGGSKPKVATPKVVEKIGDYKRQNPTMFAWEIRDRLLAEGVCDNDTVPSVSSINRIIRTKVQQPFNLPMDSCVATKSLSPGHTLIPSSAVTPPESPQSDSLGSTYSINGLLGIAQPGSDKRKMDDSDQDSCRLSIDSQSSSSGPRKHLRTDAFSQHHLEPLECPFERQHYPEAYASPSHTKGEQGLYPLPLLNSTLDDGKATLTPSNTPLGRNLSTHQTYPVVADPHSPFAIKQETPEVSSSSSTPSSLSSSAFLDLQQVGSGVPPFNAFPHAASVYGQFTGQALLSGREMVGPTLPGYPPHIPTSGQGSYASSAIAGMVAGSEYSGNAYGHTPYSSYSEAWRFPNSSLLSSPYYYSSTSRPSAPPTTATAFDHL
Assay [7] has as its target T1, Sentrin-specific protease 6 (Homo sapiens, UniProt Q9GZR1).
T1 sequence (Q9GZR1 whole entry): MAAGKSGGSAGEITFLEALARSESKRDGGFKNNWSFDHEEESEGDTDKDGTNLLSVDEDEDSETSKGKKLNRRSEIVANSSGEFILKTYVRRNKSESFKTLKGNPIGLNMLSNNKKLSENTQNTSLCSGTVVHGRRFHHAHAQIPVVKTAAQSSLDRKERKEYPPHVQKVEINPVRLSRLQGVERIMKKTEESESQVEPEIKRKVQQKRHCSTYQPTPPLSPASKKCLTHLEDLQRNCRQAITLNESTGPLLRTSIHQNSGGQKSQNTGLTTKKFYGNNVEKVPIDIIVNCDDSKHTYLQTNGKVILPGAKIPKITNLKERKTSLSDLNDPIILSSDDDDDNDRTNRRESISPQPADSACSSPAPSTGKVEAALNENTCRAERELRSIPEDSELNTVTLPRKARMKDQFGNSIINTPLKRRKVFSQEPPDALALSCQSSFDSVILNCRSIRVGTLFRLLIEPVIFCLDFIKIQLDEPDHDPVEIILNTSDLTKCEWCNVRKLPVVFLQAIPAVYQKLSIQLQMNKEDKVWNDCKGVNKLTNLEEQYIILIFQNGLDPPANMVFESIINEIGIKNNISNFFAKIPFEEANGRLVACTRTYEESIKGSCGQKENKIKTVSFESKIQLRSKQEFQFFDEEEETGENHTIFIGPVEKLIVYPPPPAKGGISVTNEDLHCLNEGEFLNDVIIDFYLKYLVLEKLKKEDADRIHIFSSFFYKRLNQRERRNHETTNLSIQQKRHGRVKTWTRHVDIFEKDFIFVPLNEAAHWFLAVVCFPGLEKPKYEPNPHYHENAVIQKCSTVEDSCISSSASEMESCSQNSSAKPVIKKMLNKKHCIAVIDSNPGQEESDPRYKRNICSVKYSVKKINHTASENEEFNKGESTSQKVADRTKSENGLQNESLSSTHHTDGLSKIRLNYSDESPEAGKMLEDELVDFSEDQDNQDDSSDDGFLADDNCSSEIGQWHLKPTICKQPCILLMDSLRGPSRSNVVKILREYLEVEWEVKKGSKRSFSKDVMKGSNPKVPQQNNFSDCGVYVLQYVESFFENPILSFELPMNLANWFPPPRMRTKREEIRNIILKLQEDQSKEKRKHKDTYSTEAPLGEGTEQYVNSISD
Briefly: SAR Analysis of small molecule inhibitors of Sentrin-specific protease 6 (SENP6) using a Luminescent assay. [Related pubchem assays (depositor defined):AID2582, AID2599]. It counts as functional.

The target in assay [8] is Serine/threonine-protein phosphatase PP1-alpha catalytic subunit (Homo sapiens, UniProt P62136). Briefly: PP1 phosphatase inhibitors, dose response, biochemical, fluorescence (AID 2394).
Serine/threonine-protein phosphatase PP1-alpha catalytic subunit, sequence (P62136 whole entry): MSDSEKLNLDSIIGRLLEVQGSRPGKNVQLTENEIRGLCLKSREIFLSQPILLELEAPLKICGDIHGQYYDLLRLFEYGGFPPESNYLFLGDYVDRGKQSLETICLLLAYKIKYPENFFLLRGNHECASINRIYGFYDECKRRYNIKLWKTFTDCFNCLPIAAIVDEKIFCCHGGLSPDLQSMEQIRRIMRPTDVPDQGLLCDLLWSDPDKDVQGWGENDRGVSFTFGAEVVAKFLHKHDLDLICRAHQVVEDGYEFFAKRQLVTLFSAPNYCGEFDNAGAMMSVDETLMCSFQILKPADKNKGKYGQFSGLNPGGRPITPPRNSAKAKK
Assay [9] can be described thus: A549 cell cytotoxicity, dose response, cytotoxicity control, plate reader, cherry-pick, antagonist series (AID 743412). It counts as functional, cell-based.
The target of assay [10] is Mu-type opioid receptor (Homo sapiens, UniProt P35372). Briefly: HTS Image-Based Screen for Agonists of the MOR Receptor. [Related pubchem assays (depositor defined):AID1777, AID1785, AID1786, AID2133]. It counts as functional.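 Note: imaging of beta-arrestin GFP recruitment into spots after receptor activation.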
Mu-type opioid receptor, sequence (P35372 whole entry): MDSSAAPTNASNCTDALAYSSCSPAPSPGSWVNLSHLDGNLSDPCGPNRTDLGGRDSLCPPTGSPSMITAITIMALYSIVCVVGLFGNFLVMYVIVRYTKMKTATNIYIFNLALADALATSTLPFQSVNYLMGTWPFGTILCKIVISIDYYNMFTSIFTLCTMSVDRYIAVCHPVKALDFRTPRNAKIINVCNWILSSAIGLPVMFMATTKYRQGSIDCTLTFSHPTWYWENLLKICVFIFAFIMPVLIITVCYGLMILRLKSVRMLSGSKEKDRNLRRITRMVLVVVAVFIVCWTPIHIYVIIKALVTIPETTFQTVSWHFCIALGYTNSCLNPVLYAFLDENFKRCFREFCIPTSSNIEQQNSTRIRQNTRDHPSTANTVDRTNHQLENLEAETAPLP
Assay [11] can be described thus: inhibitors of SNCA 5'UTR-driven reporter translation, confirmation, H4 neuroglioma cells, luminescence (AID 1988). In kind it is functional, cell-based.
Assay [12] addresses Kappa-type opioid receptor (Homo sapiens, UniProt P41145). It counts as functional.
The target of assay [13] is T2, Replicative DNA helicase DnaB (Mycobacterium tuberculosis, UniProt P9WMR3).
T2 sequence (P9WMR3 whole entry): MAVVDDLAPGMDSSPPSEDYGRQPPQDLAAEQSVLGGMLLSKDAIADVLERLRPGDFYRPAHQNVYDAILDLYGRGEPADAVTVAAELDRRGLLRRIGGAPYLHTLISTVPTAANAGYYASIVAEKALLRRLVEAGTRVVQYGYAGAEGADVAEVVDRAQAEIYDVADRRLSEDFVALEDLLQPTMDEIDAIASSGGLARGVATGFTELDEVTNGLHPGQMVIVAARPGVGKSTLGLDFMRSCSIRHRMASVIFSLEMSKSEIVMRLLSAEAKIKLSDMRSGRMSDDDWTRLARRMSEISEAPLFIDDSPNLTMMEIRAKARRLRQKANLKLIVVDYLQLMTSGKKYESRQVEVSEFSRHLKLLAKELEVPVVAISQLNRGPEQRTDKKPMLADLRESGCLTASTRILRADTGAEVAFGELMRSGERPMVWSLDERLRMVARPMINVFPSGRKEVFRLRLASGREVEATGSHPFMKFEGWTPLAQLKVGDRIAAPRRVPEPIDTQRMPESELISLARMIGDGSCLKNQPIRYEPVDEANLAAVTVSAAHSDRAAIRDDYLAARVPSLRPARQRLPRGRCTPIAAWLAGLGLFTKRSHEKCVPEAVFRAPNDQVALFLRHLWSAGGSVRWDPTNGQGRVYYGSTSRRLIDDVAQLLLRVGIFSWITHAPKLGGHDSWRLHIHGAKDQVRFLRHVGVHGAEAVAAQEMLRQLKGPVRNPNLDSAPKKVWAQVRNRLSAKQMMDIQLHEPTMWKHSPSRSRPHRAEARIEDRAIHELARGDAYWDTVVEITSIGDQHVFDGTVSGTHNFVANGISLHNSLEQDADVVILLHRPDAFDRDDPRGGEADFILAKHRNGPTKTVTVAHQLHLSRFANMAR
Briefly: DnaB intein splicing inhibitors, dose response, biochemical, cell-free fluorescence (AID 449749). It counts as functional.

Assay [14] in a line: HEK293 cell cytotoxicity, dose response, cytotoxicity control, plate reader, cherry-picked samples (AID 743446). In kind it is functional, cell-based.
Assay [15] addresses Delta-type opioid receptor (Homo sapiens, UniProt P41143). Briefly: HTS Image-Based Screen for Antagonists of the DOR Receptor. [Related pubchem assays (depositor defined):AID1777, AID1785, AID1786, AID2133]. In kind it is functional.

The source made the active and inactive calls. Bounds are passed on as bounds.

Delta-type opioid receptor, sequence (P41143 whole entry): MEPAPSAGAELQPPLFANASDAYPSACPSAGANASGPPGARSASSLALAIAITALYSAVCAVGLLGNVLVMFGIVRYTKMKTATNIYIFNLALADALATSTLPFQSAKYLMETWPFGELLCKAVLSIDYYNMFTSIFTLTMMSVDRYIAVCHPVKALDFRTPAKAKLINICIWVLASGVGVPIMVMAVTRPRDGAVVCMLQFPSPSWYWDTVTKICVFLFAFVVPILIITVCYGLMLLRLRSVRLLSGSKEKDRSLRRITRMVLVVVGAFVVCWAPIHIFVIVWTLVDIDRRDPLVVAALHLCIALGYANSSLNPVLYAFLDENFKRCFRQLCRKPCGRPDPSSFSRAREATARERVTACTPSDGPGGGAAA
Kappa-type opioid receptor, sequence (P41145 whole entry): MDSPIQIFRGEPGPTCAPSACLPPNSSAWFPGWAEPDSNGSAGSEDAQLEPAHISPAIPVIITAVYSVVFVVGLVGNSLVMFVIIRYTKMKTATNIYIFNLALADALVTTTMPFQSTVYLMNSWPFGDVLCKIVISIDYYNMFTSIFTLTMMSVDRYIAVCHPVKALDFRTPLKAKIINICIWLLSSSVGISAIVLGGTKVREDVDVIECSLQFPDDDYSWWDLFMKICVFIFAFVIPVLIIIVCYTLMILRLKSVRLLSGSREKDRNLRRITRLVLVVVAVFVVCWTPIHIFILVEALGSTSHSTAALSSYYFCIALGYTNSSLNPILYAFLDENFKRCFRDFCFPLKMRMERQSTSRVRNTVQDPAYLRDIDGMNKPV

On to `Cc1ccc(C)c(S(=O)(=O)N2CCN(Cc3ccc(O)c4ncccc34)CC2)c1`, for which the AC50 in assay [1] was 5.3 µM (active); in [4], 1.23 µM (active); in [5] it was 2.84 µM (active). Further, the IC50 in [2] was > 119 µM (inactive). In addition, the EC50 in [3] was 81.5 µM (active).
Take `Oc1ccc(/C=N\Nc2cc(N3CCOCC3)nc(N3CCOCC3)n2)c(O)c1`: the half-maximal activity concentration (AC50) in [6] is 20.4 µM (active). The IC50 in assay [7] was 31.8 µM (active); in assay [8], > 67 µM (not active).
Take `COc1cc(NC(=O)Cn2ncc(Cl)c(Cl)c2=O)c(C)cc1[N+](=O)[O-]`: the AC50 is 40.9 µM (active) in assay [1]; 5.78 µM (active) in assay [9]; 4.62 µM (active) in assay [6]; 3.3 µM (active) in assay [4]; 26.6 µM (active) in [13]; 6.28 µM (active) in [14]. Moreover, in assay [5], the half-maximal activity concentration (AC50) is 3.44 µM (active). Besides, the EC50 in assay [10] was > 32 µM (inactive); in [11], > 120 µM (not active). Further, the concentration for half-maximal inhibition (IC50) is 12.9 µM (active) in assay [12] and > 32 µM (inactive) in assay [15].

The term AC50 denotes the concentration giving half of the maximal activity seen. One may read the IC50 as the concentration at which inhibition is half-maximal. One may read the EC50 as the concentration at which the effect is half-maximal.

For the origin of these results see ChEMBL document CHEMBL1201862, “PubChem BioAssay data set” (2004).
